Results: patent US12208076B2 (Southern Methodist University, priority 2020, dated 2025)

Assay: Thermogravimetric analysis (TGA), thermal stability
Assay type: physicochemical
Settings: 10° C./min, nitrogen
Method: TGA. […] Each sample was placed in an alumina crucible and heated from 25 to 1000° C. at a heating rate of 10° C./min under a constant flow of nitrogen. […] The different thermal decomposition pattern of a-CAA further supports the hypothesis that the milling product is a co-amorphous formulation and not a physical mixture of amorphous starting materials. […] The similarity between the IR spectra of both formulations points to similarities in their local structures and is indicative of a 1:1 stoichiometry. This stoichiometry was confirmed by thermal analyses. […] The similar TGA profiles of dried c-CAA and a-CAA, shown in FIGS. 3A and 3B, further confirm that the co-amorphous and the co-crystalline formulation have the same stoichiometry and similar local structures.

Row | Compound | decomposition temperature (stable up to)
1 | CN(CC(=O)O)C(=N)N [creatine anhydrate] | 220 °C
2 | O=C(O)CC(O)(CC(=O)O)C(=O)O [citric acid anhydrate] | 164 °C
